# In US4537717A:
# Values joined by “and” are separate entries in the source; they are usually repeats but may differ in a detail not shown here. Equal values may be shown once.
# How the values were obtained:
# [1] = test system: Streptococcus pyogenes; test: in vivo activity against experimental bacterial infection (ED50); conditions: mice, dose protecting fifty percent of test animals; for ED50 Streptococcus pyogenes Oral: two doses orally; for ED50 Streptococcus pyogenes Subcutaneous: two doses subcutaneously
# [2] = test system: Staphylococcus aureus ATCC 6738P; test: agar-plate disc-diffusion test; assay type: cell-based; conditions: suspended in water at 1 mg/ml; 7 mm disc; 24-48 hours at 25-37° C.
# [3] = test system: Micrococcus luteus ATCC 9341; test: agar-plate disc-diffusion test; assay type: cell-based; conditions: suspended in water at 1 mg/ml; 7 mm disc; 24-48 hours at 25-37° C.
# [4] = test system: Staphylococcus aureus; test: in vivo activity against experimental bacterial infection (ED50); conditions: mice; two doses subcutaneously; dose protecting fifty percent of test animals
# [5] = toxicity test (LD50); conditions: mouse, in vivo, iv, mice; administered intravenously
# [6] = test system: Bacillus subtilis ATCC 6633; test: agar-plate disc-diffusion test; conditions: 7 mm disc, 24-48 hours at 25-37° C.; for Size of Zone of Inhibition (mm) B. subtilis ATCC 6633, grown on minimal nutrient agar: 1 mg/ml; for Size of Zone of Inhibition (mm) Bacillus subtilis ATCC 6633: suspended in water at 1 mg/ml
# Protocol: ^a Compounds were suspended in water at a concentration of 1 mg/ml; a
# 7 mm disc was dipped into the suspension and then placed on the agar
# surface; incubation: 24-48 hours at 25-37° C.
# ^b Grown on minimal nutrient agar
# [7] = test system: Streptococcus Group 9960; assay type: cell-based, Streptococcus pneumoniae; conditions: agar dilution; 2, 5, 17, 22 median of three tests; paired values two experiments
# [8] = test system: Streptococcus pneumoniae Park I; assay type: cell-based; conditions: agar dilution; 2, 5, 17, 22 median of three tests; paired values two experiments
# [9] = test system: Staphylococcus aureus V41; assay type: cell-based; conditions: penicillin-resistant strain; agar dilution; 2, 5, 17, 22 median of three tests; paired values two experiments
# [10] = test system: Staphylococcus epidermidis EPI1; assay type: cell-based; conditions: agar dilution; 2, 5, 17, 22 median of three tests; paired values two experiments
# [11] = test system: Staphylococcus epidermidis EPI2; assay type: cell-based; conditions: agar dilution; 2, 5, 17, 22 median of three tests; paired values two experiments
# [12] = test system: Streptococcus pneumoniae Group D X66; assay type: cell-based; conditions: agar dilution; 2, 5, 17, 22 median of three tests; paired values two experiments
# [13] = test system: Streptococcus pyogenes C203; assay type: cell-based; conditions: agar dilution; 2, 5, 17, 22 median of three tests; paired values two experiments
# [14] = test system: Staphylococcus aureus X400; assay type: cell-based; conditions: methicillin-resistant strain; agar dilution; 2, 5, 17, 22 median of three tests; paired values two experiments
# [15] = test system: Staphylococcus aureus X1.1; assay type: cell-based; conditions: agar dilution; 2, 5, 17, 22 median of three tests; paired values two experiments
Molecule,ED50 Streptococcus pyogenes Oral [1],ED50 Streptococcus pyogenes Subcutaneous [1],Size of Zone of Inhibition (mm) Staphylococcus aureus ATCC 6738P [2],Size of Zone of Inhibition (mm) Micrococcus luteus ATCC 9341 [3],ED50 Staphylococcus aureus Subcutaneous [4],LD50 [5],"Size of Zone of Inhibition (mm) B. subtilis ATCC 6633, grown on minimal nutrient agar [6]",Size of Zone of Inhibition (mm) Bacillus subtilis ATCC 6633 [6],MIC Streptococcus pneumoniae Group 9960 [7],MIC Streptococcus pneumoniae Park I [8],MIC Staphylococcus aureus V41 [9],MIC Staphylococcus epidermidis EPI1 [10],MIC Staphylococcus epidermidis EPI2 [11],MIC Streptococcus pneumoniae Group D X66 [12],MIC Streptococcus pyogenes C203 [13],MIC Staphylococcus aureus X400 [14],MIC Staphylococcus aureus X1.1 [15]
CCC(C)CCCCCCC(=O)N[C@@H](Cc1c[nH]c2ccccc12)C(=O)N[C@@H](CC(N)=O)C(=O)N[C@@H](CC(=O)O)C(=O)N[C@@H]1C(=O)NCC(=O)N[C@@H](CCCNC(=O)CCC(=O)O)C(=O)N[C@@H](CC(=O)O)C(=O)N[C@H](C)C(=O)N[C@@H](CC(=O)O)C(=O)NCC(=O)N[C@H](CO)C(=O)N[C@@H]([C@H](C)CC(=O)O)C(=O)N[C@@H](CC(=O)c2ccccc2N)C(=O)O[C@@H]1C (some centres unmarked) [Compound 15],> 200 mg/kg × 2,1.4 mg/kg × 2,21 mm,19 mm,6.27 mg/kg × 2,450 mg/kg,25 mm,18 mm,–,–,–,–,–,–,–,–,–
NTrp -(n-Decanoyl)-NKyn -(n-decanoyl)-A-21978C [Compound 21],–,–,–,–,–,–,–,–,128 µg/mL,0.5 µg/mL,4 µg/mL,2 µg/mL,2 µg/mL,> 128 µg/mL,0.125 µg/mL,32 µg/mL,1 µg/mL
NTrp -(n-dodecyl)-NOrn -(n-dodecyl)-A-21978C nucleus [Compound 23],–,–,–,–,–,–,–,–,8 µg/mL,8 µg/mL,8 µg/mL,8 µg/mL,8 µg/mL,32 µg/mL,4 µg/mL,16 µg/mL,8 µg/mL
CCCCCCCCCCCCCC(=O)N[C@@H](Cc1c[nH]c2ccccc12)C(=O)N[C@@H](CC(N)=O)C(=O)N[C@@H](CC(=O)O)C(=O)N[C@@H]1C(=O)NCC(=O)N[C@@H](CCCN)C(=O)N[C@@H](CC(=O)O)C(=O)N[C@H](C)C(=O)N[C@@H](CC(=O)O)C(=O)NCC(=O)N[C@H](CO)C(=O)N[C@@H]([C@H](C)CC(=O)O)C(=O)N[C@@H](CC(=O)c2ccccc2N)C(=O)O[C@@H]1C [Compound 8],< 50 mg/kg × 2,–,22 mm,21 mm,–,62.5 mg/kg,28 mm,21 mm,–,–,–,1 µg/mL,2 µg/mL,–,–,2 µg/mL,–
CCCCCCCC(=O)N[C@@H](Cc1c[nH]c2ccccc12)C(=O)N[C@@H](CC(N)=O)C(=O)N[C@@H](CC(=O)O)C(=O)N[C@@H]1C(=O)NCC(=O)N[C@@H](CCCN)C(=O)N[C@@H](CC(=O)O)C(=O)N[C@H](C)C(=O)N[C@@H](CC(=O)O)C(=O)NCC(=O)N[C@H](CO)C(=O)N[C@@H]([C@H](C)CC(=O)O)C(=O)N[C@@H](CC(=O)c2ccccc2N)C(=O)O[C@@H]1C [Compound 2],> 200 mg/kg × 2,–,23 mm,23 mm,–,> 600 mg/kg,20 mm,18 mm,16 µg/mL,8 µg/mL,4 µg/mL,8 µg/mL,4 µg/mL,64 µg/mL,1 µg/mL,8 µg/mL,4 µg/mL
CCCCCCCCCC(=O)N[C@@H](Cc1c[nH]c2ccccc12)C(=O)N[C@H](CC(N)=O)C(=O)N[C@@H](CC(=O)O)C(=O)N[C@@H]1C(=O)NCC(=O)N[C@@H](CCCN)C(=O)N[C@@H](CC(=O)O)C(=O)N[C@H](C)C(=O)N[C@@H](CC(=O)O)C(=O)NCC(=O)N[C@H](CO)C(=O)N[C@@H]([C@H](C)CC(=O)O)C(=O)N[C@@H](CC(=O)c2ccccc2N)C(=O)O[C@@H]1C [Compound 4],–,–,–,–,–,> 300 mg/kg,–,–,–,–,–,–,–,–,–,–,–
CCC(C)CCCCCCC(=O)N[C@@H](Cc1c[nH]c2ccccc12)C(=O)N[C@@H](CC(N)=O)C(=O)N[C@@H](CC(=O)O)C(=O)N[C@@H]1C(=O)NCC(=O)N[C@@H](CCCNC(C)=O)C(=O)N[C@@H](CC(=O)O)C(=O)N[C@H](C)C(=O)N[C@@H](CC(=O)O)C(=O)NCC(=O)N[C@H](CO)C(=O)N[C@@H]([C@H](C)CC(=O)O)C(=O)N[C@@H](CC(=O)c2ccccc2N)C(=O)O[C@@H]1C (some centres unmarked) [Compound 14],163 mg/kg × 2 and > 200 mg/kg × 2,–,21 mm,20 mm,1.3 mg/kg × 2,> 600 mg/kg,25 mm,18 mm,–,–,–,–,–,–,–,–,–
CCCCCCCC(=O)NCCC[C@@H]1NC(=O)CNC(=O)[C@@H](NC(=O)[C@H](CC(=O)O)NC(=O)[C@H](CC(N)=O)NC(=O)[C@H](Cc2c[nH]c3ccccc23)NC(=O)CCCCCCC)[C@@H](C)OC(=O)[C@H](CC(=O)c2ccccc2N)NC(=O)[C@H]([C@H](C)CC(=O)O)NC(=O)[C@@H](CO)NC(=O)CNC(=O)[C@H](CC(=O)O)NC(=O)[C@@H](C)NC(=O)[C@H](CC(=O)O)NC1=O [Compound 16],–,–,11 mm,10 mm,–,> 600 mg/kg,17 mm,tr,64 µg/mL,4 µg/mL,16 µg/mL,16 µg/mL,16 µg/mL,> 128 µg/mL,4 µg/mL,8 µg/mL,8 µg/mL
CCCCCCCCCCCC(=O)N[C@@H](Cc1c[nH]c2ccccc12)C(=O)N[C@@H](CC(N)=O)C(=O)N[C@@H](CC(=O)O)C(=O)N[C@@H]1C(=O)NCC(=O)N[C@@H](CCCN)C(=O)N[C@@H](CC(=O)O)C(=O)N[C@H](C)C(=O)N[C@@H](CC(=O)O)C(=O)NCC(=O)N[C@H](CO)C(=O)N[C@@H]([C@H](C)CC(=O)O)C(=O)N[C@@H](CC(=O)c2ccccc2N)C(=O)O[C@@H]1C [Compound 6],69 mg/kg × 2,0.05 mg/kg × 2,25 mm,19 mm,0.44 mg/kg × 2,144 mg/kg,32 mm,20 mm,0.5 µg/mL,0.25 µg/mL,–,1 µg/mL,1 µg/mL,2 µg/mL,0.125 µg/mL and 0.25 µg/mL,–,–
"CCCCCCCCCCCCN[C@@H](Cc1c[nH]c2ccccc12)C(=O)N[C@@H](CC(N)=O)C(=O)N[C@@H](CC(=O)O)C(=O)N[C@@H]1C(=O)NCC(=O)N[C@@H](CCCN)C(=O)N[C@@H](CC(=O)O)C(=O)N[C@H](C)C(=O)N[C@@H](CC(=O)O)C(=O)NCC(=O)N[C@H](CO)C(=O)N[C@@H]([C@H](C)CC(=O)O)C(=O)N[C@@H](CC(=O)c2ccccc2N)C(=O)O[C@@H]1C [Compound 22, NTrp -(n-dodecyl)-A-21978C nucleus]",> 200 mg/kg × 2,–,–,–,1.25 mg/kg × 2,> 300 mg/kg,–,–,1 µg/mL,1 µg/mL,1 µg/mL,1 µg/mL,1 µg/mL,4 µg/mL,0.5 µg/mL,1 µg/mL,0.5 µg/mL
